Measurements taken from patent publication US20200163336A1, “CYCLIC AMINE COMPOUND AND PEST CONTROL AGENT” (Nippon Soda Co., Ltd., priority 2017, published 2020).

Key:
Tetranychus urticae = assay: Efficacy test against Tetranychus urticae (spray on common beans); assay type: in vivo; settings: 125 ppm by mass, sprayed on common beans; female adults; 25° C., humidity 65%; 10 days after spraying
Tetranychus kanzawai = assay: Efficacy test against Tetranychus kanzawai (spray on mung beans); assay type: in vivo; settings: 125 ppm by mass, sprayed on mung beans; female adults; 25° C., humidity 65%; 10 days after spraying

Compound	acaricidal rate (Tetranychus urticae)	acaricidal rate (Tetranychus kanzawai)
CSCC1CCN(C(=O)c2cc(C#N)c(-c3ccc(C(F)(F)F)cc3)nc2C)CC1 [a-90]	a-90%	a-90%
CCSCC1CCN(C(=O)c2cc(C#N)c(-c3ccc(C(F)(F)F)cc3)nc2CSC)CC1 [a-190]	a-190%	
CCSCC1CCN(C(=O)c2cc(C(N)=S)c(-c3ccc(C(F)(F)F)cc3)nc2C(F)(F)C(F)(F)F)CC1 [b-90]	b-90%	
